How the values were obtained:
[1] = biological target: MLK3 (Homo sapiens, UniProt Q16584); test: Selectivity profile (123 kinase panel); format: biochemical
[2] = biological target: BTK (Homo sapiens, UniProt Q06187); test: Selectivity profile (123 kinase panel); format: biochemical
[3] = biological target: DDR1 (Homo sapiens, UniProt Q08345); test: Selectivity profile (123 kinase panel); format: biochemical
[4] = biological target: CK1γ3 (Homo sapiens, UniProt Q9Y6M4); test: Selectivity profile (123 kinase panel); format: biochemical
[5] = biological target: CK1α (Homo sapiens, UniProt P48729); test: Selectivity profile (123 kinase panel); format: biochemical
[6] = biological target: AXL (Homo sapiens, UniProt P30530); test: Selectivity profile (123 kinase panel); format: biochemical
[7] = biological target: PARP8 (Homo sapiens, UniProt Q8N3A8); test: Selectivity profile (other isoforms of PARP and NRP family); format: biochemical
[8] = biological target: KDR (Homo sapiens, UniProt P35968); test: Selectivity profile (123 kinase panel); format: biochemical
[9] = biological target: EPHA2 (Homo sapiens, UniProt P29317); test: Selectivity profile (123 kinase panel); format: biochemical
[10] = biological target: ALK4 (Homo sapiens, UniProt P36896); test: Selectivity profile (123 kinase panel); format: biochemical
[11] = biological target: CaMK2α (Homo sapiens, UniProt Q9UQM7); test: Selectivity profile (123 kinase panel); format: biochemical
[12] = biological target: T1, PARP1 (Homo sapiens, UniProt P09874); test: In vitro PARP1 inhibition assay (chemiluminescence); format: biochemical; details: PARP1 enzyme 0.6 units/well
T1 construct: purchased Abcam
Experimental: In each well, 50 μL of 1 × PARP1 buffer was added and incubated for 30 min at room temperature. The 1 × PARP1 buffer was removed from the wells, and then 25 μL of 1 × PARP1 cocktail was added to each well along with varying doses of compounds and PARP1 enzyme (0.6 units/well). Incubated and washed twice with PBS and 0.1% Triton X-100. Then added 50 μL Strep-HRP and washed twice. Equal volumes (100 μL) of PeroxyGlow A and B were added to each well and immediately take chemiluminescent readings. Data were analyzed by GraphPad Prism 9 software based on chemiluminescence readings of chemiluminescent substrates of Strep-HRP in each well. The IC50 value was were calculated by nonlinear curve fitting in GraphPad Prism 9.

[13] = system: MDA-MB-231 cells; test: In vitro antiproliferation assay (MTT); format: cell-based; details: Homo sapiens, MDA-MB-231
Experimental: Cell viability was measured by MTT assays. […] Afterward, the medium was removed. MTT (5 mg/mL) was dissolved in phosphate-buffered saline (PBS) and filter-sterilized, and then, 20 μL of the prepared MTT solution was added to each well, and the cells were incubated for another 4 h until a purple precipitate was visible. The supernatant was removed by centrifugation, and DMSO (150 μL/well) was added to dissolve the insoluble crystals. The absorbance was determined using an enzyme-linked immunosorbent assay reader at a test wavelength of 570 nm. The assays were performed three times in a parallel manner. The non-linear regression was used to plot a Dose-Response-Inhibition to determine the value of the IC50. […] The data were analyzed using GraphPad Prism 9 software.

[14] = In vivo pharmacokinetic studies; parameters: species or system SD rats; details: Sprague-Dawley (SD), rat, plasma, po, 10 mg/kg
Experimental: Blood samples (0.25 mL) were collected at 0.25, 0.5, 1, 2, 4, 8, 16, and 24 h after administration and centrifuged to obtain the plasma fraction. In a 96-well plate, the plasma sample (50 μL) was transferred, and the internal standard methanol/acetonitrile (1:1, v/v) solution (200 μL) was added. After vortexing for 5 min, the mixture was centrifuged (12,000 rpm, 5 min) and the supernatant was obtained (60.0 μL). Liquid chromatography and tandem mass spectrometry (LC-MS/MS) system was used to study pharmacokinetics. The data were processed by Phoenix.

[15] = biological target: AMPKα2/β1/γ1 (Homo sapiens, UniProt P54619+P54646+Q9Y478); test: Selectivity profile (123 kinase panel); format: biochemical
[16] = biological target: FLT3 (Homo sapiens, UniProt P36888); test: Selectivity profile (123 kinase panel); format: biochemical
[17] = biological target: KHS (Homo sapiens, UniProt Q9Y4K4); test: Selectivity profile (123 kinase panel); format: biochemical
[18] = biological target: MRCKα (Homo sapiens, UniProt Q5VT25); test: Selectivity profile (123 kinase panel); format: biochemical
[19] = biological target: BRSK1 (Homo sapiens, UniProt Q8TDC3); test: Selectivity profile (123 kinase panel); format: biochemical
[20] = biological target: FES (Homo sapiens, UniProt P07332); test: Selectivity profile (123 kinase panel); format: biochemical
[21] = biological target: JNK2 (Homo sapiens, UniProt P45984); test: Selectivity profile (123 kinase panel); format: biochemical
[22] = biological target: ABL2 (Homo sapiens, UniProt P42684); test: Selectivity profile (123 kinase panel); format: biochemical
[23] = biological target: ABL1 (Homo sapiens, UniProt P00519); test: Selectivity profile (123 kinase panel); format: biochemical
[24] = biological target: CLK1 (Homo sapiens, UniProt P49759); test: Selectivity profile (123 kinase panel); format: biochemical
[25] = biological target: EPHA7 (Homo sapiens, UniProt Q15375); test: Selectivity profile (123 kinase panel); format: biochemical
[26] = biological target: NRP2 (Homo sapiens, UniProt O60462); test: Selectivity profile (other isoforms of PARP and NRP family); format: biochemical
[27] = biological target: MARK3 (Homo sapiens, UniProt P27448); test: Selectivity profile (123 kinase panel); format: biochemical
[28] = biological target: JAK1 (Homo sapiens, UniProt P23458); test: Selectivity profile (123 kinase panel); format: biochemical
[29] = biological target: MST2 (Homo sapiens, UniProt Q13188); test: Selectivity profile (123 kinase panel); format: biochemical
[30] = biological target: DYRK3 (Homo sapiens, UniProt O43781); test: Selectivity profile (123 kinase panel); format: biochemical
[31] = biological target: CK1γ1 (Homo sapiens, UniProt Q9HCP0); test: Selectivity profile (123 kinase panel); format: biochemical

Sequence of JAK1 (P23458 whole entry): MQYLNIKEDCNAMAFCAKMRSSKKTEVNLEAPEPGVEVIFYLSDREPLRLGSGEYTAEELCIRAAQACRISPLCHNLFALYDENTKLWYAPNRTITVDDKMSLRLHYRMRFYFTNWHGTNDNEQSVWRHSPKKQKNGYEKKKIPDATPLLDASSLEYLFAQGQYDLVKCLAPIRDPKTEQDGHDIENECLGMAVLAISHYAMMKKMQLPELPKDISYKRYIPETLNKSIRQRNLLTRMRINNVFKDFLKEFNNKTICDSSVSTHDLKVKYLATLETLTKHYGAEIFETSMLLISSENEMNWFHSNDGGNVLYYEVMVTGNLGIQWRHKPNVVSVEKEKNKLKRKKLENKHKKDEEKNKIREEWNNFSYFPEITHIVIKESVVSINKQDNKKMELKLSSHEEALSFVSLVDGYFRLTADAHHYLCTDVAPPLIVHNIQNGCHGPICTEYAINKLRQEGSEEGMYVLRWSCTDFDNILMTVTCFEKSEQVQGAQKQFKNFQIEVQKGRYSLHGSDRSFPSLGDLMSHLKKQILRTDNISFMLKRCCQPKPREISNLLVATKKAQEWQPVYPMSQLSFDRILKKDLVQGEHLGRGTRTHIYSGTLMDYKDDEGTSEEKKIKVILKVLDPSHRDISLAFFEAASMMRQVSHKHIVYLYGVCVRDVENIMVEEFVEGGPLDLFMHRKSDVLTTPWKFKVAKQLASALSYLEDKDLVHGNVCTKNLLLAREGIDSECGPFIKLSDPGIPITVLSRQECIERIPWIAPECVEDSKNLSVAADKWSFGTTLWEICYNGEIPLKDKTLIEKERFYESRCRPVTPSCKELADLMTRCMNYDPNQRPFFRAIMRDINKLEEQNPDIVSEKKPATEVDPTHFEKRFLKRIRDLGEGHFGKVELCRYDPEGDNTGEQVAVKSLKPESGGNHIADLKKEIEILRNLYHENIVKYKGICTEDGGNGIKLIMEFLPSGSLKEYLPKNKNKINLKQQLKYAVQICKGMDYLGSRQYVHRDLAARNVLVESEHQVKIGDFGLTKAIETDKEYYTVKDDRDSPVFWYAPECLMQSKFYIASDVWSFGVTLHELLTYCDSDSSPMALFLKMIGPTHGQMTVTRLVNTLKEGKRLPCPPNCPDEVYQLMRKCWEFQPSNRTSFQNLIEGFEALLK
Sequence of ABL2 (P42684 whole entry): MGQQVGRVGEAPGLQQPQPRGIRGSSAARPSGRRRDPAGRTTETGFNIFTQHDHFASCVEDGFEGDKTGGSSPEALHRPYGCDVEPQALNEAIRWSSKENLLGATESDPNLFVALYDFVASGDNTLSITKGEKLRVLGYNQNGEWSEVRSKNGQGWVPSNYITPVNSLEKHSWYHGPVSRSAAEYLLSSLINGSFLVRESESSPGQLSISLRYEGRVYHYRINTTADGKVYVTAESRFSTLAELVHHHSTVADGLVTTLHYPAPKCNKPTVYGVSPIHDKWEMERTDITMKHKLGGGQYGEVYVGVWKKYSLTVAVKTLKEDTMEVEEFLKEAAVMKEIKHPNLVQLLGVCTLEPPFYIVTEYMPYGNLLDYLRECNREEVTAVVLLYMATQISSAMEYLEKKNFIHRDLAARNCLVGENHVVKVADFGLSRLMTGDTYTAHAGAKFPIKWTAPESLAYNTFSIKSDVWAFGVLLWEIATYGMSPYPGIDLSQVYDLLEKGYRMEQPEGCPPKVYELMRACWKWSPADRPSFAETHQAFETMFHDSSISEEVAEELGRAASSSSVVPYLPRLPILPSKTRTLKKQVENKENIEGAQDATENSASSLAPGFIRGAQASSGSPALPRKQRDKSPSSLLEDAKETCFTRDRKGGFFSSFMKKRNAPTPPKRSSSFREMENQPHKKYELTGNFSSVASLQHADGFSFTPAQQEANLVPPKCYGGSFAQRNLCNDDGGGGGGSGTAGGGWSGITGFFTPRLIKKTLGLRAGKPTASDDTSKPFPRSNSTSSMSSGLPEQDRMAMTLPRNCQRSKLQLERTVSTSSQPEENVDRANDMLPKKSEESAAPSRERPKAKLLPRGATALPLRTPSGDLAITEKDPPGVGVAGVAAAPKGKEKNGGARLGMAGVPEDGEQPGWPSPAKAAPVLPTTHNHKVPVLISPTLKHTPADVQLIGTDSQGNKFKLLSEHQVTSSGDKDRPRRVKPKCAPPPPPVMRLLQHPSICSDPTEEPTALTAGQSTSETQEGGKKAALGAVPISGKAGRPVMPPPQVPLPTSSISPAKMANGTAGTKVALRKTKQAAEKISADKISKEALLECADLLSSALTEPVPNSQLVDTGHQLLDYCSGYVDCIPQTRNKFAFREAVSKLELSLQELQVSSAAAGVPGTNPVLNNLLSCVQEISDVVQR
Sequence of ALK4 (P36896 24-505): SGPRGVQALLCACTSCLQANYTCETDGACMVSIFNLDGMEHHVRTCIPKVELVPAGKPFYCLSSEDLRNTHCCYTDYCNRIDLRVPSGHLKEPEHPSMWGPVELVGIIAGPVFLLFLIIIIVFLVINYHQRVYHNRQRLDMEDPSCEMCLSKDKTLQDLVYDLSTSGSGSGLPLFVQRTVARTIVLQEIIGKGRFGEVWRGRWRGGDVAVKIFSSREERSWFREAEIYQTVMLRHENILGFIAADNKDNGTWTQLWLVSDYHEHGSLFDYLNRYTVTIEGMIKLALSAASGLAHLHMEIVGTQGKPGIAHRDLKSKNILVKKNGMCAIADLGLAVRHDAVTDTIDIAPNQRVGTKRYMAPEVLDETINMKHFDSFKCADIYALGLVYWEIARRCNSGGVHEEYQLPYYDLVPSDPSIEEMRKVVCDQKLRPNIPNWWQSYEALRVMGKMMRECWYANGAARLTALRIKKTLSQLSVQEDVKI
Sequence of KHS (Q9Y4K4 whole entry): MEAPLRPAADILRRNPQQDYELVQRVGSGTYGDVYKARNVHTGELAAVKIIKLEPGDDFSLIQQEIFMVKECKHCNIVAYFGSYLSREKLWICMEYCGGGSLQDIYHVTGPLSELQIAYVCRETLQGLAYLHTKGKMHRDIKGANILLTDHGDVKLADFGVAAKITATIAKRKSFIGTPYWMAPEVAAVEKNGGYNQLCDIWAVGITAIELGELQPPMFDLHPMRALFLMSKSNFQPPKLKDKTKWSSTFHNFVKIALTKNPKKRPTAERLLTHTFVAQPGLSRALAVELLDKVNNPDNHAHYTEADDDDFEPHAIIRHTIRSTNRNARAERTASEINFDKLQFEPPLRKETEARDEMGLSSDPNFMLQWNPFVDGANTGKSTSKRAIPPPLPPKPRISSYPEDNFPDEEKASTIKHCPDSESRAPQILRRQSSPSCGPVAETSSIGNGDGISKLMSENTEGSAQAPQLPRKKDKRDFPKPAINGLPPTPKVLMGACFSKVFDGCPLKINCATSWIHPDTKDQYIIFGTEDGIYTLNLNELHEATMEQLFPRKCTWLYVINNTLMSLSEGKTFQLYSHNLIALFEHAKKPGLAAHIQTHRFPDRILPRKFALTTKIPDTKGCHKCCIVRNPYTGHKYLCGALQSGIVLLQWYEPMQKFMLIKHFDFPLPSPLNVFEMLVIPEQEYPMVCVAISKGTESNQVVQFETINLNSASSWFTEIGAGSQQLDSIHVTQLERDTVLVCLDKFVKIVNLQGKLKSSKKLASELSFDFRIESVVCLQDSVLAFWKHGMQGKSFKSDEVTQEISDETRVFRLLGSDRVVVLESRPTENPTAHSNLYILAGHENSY
Sequence of CK1α (P48729 whole entry): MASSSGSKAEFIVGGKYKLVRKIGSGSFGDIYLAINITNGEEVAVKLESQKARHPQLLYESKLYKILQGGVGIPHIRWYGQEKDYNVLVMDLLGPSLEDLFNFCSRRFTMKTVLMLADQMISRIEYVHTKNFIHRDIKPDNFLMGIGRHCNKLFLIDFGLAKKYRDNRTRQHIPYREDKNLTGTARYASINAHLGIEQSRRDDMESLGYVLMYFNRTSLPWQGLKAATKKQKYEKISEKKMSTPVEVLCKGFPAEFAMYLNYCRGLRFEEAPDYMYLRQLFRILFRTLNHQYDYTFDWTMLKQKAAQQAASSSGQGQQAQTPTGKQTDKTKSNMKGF
Sequence of FLT3 (P36888 27-993, species assumed): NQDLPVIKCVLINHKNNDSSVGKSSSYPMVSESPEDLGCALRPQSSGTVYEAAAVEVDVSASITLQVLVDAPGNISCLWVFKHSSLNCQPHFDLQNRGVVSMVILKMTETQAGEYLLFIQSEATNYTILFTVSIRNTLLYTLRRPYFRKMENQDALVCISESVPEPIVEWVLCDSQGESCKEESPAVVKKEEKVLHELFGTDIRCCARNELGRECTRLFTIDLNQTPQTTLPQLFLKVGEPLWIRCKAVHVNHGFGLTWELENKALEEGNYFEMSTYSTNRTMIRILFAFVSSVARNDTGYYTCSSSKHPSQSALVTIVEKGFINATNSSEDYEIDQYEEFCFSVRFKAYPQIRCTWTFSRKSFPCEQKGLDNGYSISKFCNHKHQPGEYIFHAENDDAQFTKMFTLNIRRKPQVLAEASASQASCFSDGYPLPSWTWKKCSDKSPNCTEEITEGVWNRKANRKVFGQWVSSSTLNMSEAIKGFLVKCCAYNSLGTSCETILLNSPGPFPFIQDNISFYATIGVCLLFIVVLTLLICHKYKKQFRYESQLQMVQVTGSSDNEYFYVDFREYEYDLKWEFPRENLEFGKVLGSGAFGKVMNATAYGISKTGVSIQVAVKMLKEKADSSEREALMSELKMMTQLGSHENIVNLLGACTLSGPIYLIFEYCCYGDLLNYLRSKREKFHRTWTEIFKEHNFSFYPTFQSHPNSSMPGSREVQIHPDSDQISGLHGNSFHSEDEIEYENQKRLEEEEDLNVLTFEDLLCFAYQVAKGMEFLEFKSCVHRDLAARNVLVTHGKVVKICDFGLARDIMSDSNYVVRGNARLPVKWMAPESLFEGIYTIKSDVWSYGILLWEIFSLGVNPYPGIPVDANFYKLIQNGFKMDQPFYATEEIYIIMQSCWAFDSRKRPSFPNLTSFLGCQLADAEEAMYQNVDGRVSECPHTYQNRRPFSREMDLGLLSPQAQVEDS

With `NC(N)=NCCC[C@H](NCN1CCN(C(=O)c2cc(Cc3n[nH]c(=O)c4ccccc34)ccc2F)CC1)C(=O)O` [PPNR-4] the IC50 [1] was > 10 µM, the IC50 [2] was > 10 µM and the IC50 [3] was > 10 µM. For the same molecule, the IC50 [4] was > 10 µM, the IC50 [5] was > 10 µM and the IC50 [6] was > 10 µM. For the same molecule, the IC50 [7] was > 10 µM, the IC50 [8] was > 10 µM and the IC50 [9] was > 10 µM. The IC50 [10] was > 10 µM, the IC50 [11] was > 10 µM and the IC50 [12] was 7.71 ± 0.39 nM. For the same molecule, the IC50 ([13]; 168 h, concentration needed to reduce cell growth by 50% following 7 days cell treatment, read-out: IC50) was 210 nM, the inhibition at 2 µM ([13]; 2 μM, read-out: cell inhibition rate) was > 80% and the bioavailability [14] was 66.5%. The AUC ([14]; SD rats, p.o) was 8020 ng·h/mL, the Cmax ([14]; SD rats, p.o) was 812 ng/mL and the half-life ([14]; SD rats, p.o) was 163 min. The IC50 [15] was > 10 µM, the IC50 [16] was > 10 µM and the IC50 [17] was > 10 µM. The IC50 [18] was > 10 µM, the IC50 [19] was > 10 µM and the IC50 [20] was > 10 µM. For the same molecule, the IC50 [21] was > 10 µM, the IC50 [22] was > 10 µM and the IC50 [23] was > 10 µM. For the same molecule, the IC50 [24] was > 10 µM, the IC50 [25] was > 10 µM and the IC50 [26] was > 10 µM. The IC50 [27] was > 10 µM, the IC50 [28] was > 10 µM and the IC50 [29] was > 10 µM. For the same molecule, the IC50 [30] was > 10 µM and the IC50 [31] was > 10 µM.
